Data from ChEMBL document CHEMBL1121678, “Antitumor agents. 44. Bis(helenalinyl) esters and related derivatives as novel potent antileukemic agents” (1981).

Tests used:
Assay type in all cases: functional
[1] = tested on: Mus musculus; assay: Antileukemic activity of compound against the P-388 lymphocytic leukemic BDF1 male mice at 30(mg/kg)/day, administered intraperitoneally; 6.7/9.66 (Treated/control)
[2] = tested on: Mus musculus; assay: Antileukemic activity of compound against the P-388 lymphocytic leukemic BDF1 male mice at 4(mg/kg)/day, administered intraperitoneally; 16.2/9.66 (Treated/control)
[3] = tested on: Mus musculus; assay: Antileukemic activity of compound against the P-388 lymphocytic leukemic BDF1 male mice at 2(mg/kg)/day, administered intraperitoneally; 14.5/9.66 (Treated/control)
[4] = tested on: Mus musculus; assay: Antileukemic activity of compound against the P-388 lymphocytic leukemic BDF1 male mice at 15(mg/kg)/day, administered intraperitoneally; 9.8/9.66 (Treated/control)
[5] = tested on: Mus musculus; assay: Antileukemic activity of compound against the P-388 lymphocytic leukemic BDF1 male mice at 60 mg/kg/day, administered intraperitoneally; 3.8/9.66 (Treated/control); settings: route intraperitoneal
[6] = tested on: Mus musculus; assay: Antileukemic activity of compound against the P-388 lymphocytic leukemic BDF1 male mice at 8(mg/kg)/day, administered intraperitoneally; 16.7/9.66 (Treated/control)
[7] = tested on: Mus musculus; assay: In vivo antileukemic activity against P-388 lymphocytic leukemia in BDF1 male mice at 4(mg/kg)/day intraperitoneal dose expressed as T/C
[8] = tested on: Mus musculus; assay: In vivo antileukemic activity against P-388 lymphocytic leukemia in BDF1 male mice at 60 mg/kg/day intraperitoneal dose expressed as T/C
[9] = tested on: Mus musculus; assay: In vivo antileukemic activity against P-388 lymphocytic leukemia in BDF1 male mice at 8(mg/kg)/day intraperitoneal dose expressed as T/C
[10] = tested on: Mus musculus; assay: In vivo antileukemic activity against P-388 lymphocytic leukemia in BDF1 male mice at 15(mg/kg)/day intraperitoneal dose expressed as T/C
[11] = tested on: Mus musculus; assay: In vivo antileukemic activity against P-388 lymphocytic leukemia in BDF1 male mice at 2(mg/kg)/day intraperitoneal dose expressed as T/C
[12] = tested on: Mus musculus; assay: In vivo antileukemic activity against P-388 lymphocytic leukemia in BDF1 male mice at 30(mg/kg)/day intraperitoneal dose expressed as T/C
[13] = tested on: Mus musculus; assay: Antileukemic activity of compound against the P-388 lymphocytic leukemic BDF1 male mice at 8(mg/kg)/day, administered intraperitoneally; 10.5/9.66 (Treated/control)
[14] = tested on: Mus musculus; assay: Antileukemic activity of compound against the P-388 lymphocytic leukemic BDF1 male mice at 25(mg/kg)/day, administered intraperitoneally; 18.0/9.66 (Treated/control)
[15] = tested on: Mus musculus; assay: Antileukemic activity of compound against the P-388 lymphocytic leukemic BDF1 male mice at 8(mg/kg)/day, administered intraperitoneally; 11.9/9.66 (Treated/control)
[16] = tested on: Mus musculus; assay: Antileukemic activity of compound against the P-388 lymphocytic leukemic BDF1 male mice at 15(mg/kg)/day, administered intraperitoneally; 10.8/9.66 (Treated/control)
[17] = tested on: Mus musculus; assay: Antileukemic activity of compound against the P-388 lymphocytic leukemic BDF1 male mice at 12(mg/kg)/day, administered intraperitoneally; 10.8/9.66 (Treated/control)
[18] = tested on: Mus musculus; assay: In vivo antileukemic activity against P-388 lymphocytic leukemia in BDF1 male mice at 12(mg/kg)/day intraperitoneal dose expressed as T/C
[19] = tested on: Mus musculus; assay: Antileukemic activity of compound against the P-388 lymphocytic leukemic BDF1 male mice at 25(mg/kg)/day, administered intraperitoneally; 17.2/9.66 (Treated/control)
[20] = tested on: Mus musculus; assay: Antileukemic activity of compound against the P-388 lymphocytic leukemic BDF1 male mice at 4(mg/kg)/day, administered intraperitoneally; 10.6/9.66 (Treated/control)
[21] = tested on: Mus musculus; assay: Antileukemic activity of compound against the P-388 lymphocytic leukemic BDF1 male mice at 2(mg/kg)/day, administered intraperitoneally; 11.2/9.66 (Treated/control)
[22] = tested on: Mus musculus; assay: Antileukemic activity of compound against the P-388 lymphocytic leukemic BDF1 male mice at 8(mg/kg)/day, administered intraperitoneally; 13.7/9.66 (Treated/control)
[23] = tested on: Mus musculus; assay: Antileukemic activity of compound against the P-388 lymphocytic leukemic BDF1 male mice at 50(mg/kg)/day, administered intraperitoneally; 13.4/9.66 (Treated/control)
[24] = tested on: Mus musculus; assay: Antileukemic activity of compound against the P-388 lymphocytic leukemic BDF1 male mice at 12.5 mg/kg/day, administered intraperitoneally; 16.0/9.66 (Treated/control); settings: route intraperitoneal
[25] = tested on: Mus musculus; assay: In vivo antileukemic activity against P-388 lymphocytic leukemia in BDF1 male mice at 50(mg/kg)/day intraperitoneal dose expressed as T/C
[26] = tested on: Mus musculus; assay: In vivo antileukemic activity against P-388 lymphocytic leukemia in BDF1 male mice at 12.5 mg/kg/day intraperitoneal dose expressed as T/C
[27] = tested on: Mus musculus; assay: In vivo antileukemic activity against P-388 lymphocytic leukemia in BDF1 male mice at 25(mg/kg)/day intraperitoneal dose expressed as T/C

Compound: C=C1C(=O)O[C@@H]2C[C@@H](C)[C@@H]3C=CC(=O)[C@@]3(C)[C@@H](OC(=O)CCCCC(=O)O[C@H]3[C@@H]4C(=C)C(=O)O[C@@H]4C[C@@H](C)[C@@H]4C=CC(=O)[C@]43C)[C@H]12
- Average survival (days) [1]: 6.7
- Average survival (days) [2]: 16.2
- Average survival (days) [3]: 14.5
- Average survival (days) [4]: 9.8
- Average survival (days) [5]: 3.8
- Average survival (days) [6]: 16.7
- T/C [7]: 167%
- T/C [8]: 40%
- T/C [9]: 173%
- T/C [10]: 101%
- T/C [11]: 150%
- T/C [12]: 69%

Compound: CC1C(=O)O[C@@H]2C[C@@H](C)[C@@H]3CCC(=O)[C@@]3(C)[C@@H](O)[C@H]12 (some centres undefined)
- Average survival (days) [13]: 10.5
- T/C [8]: 109%

Compound: O=c1[nH]cc(F)c(=O)[nH]1 [FLUOROURACIL]
- Average survival (days) [14]: 18
- T/C [8]: 186%

Compound: C[C@@H]1C[C@H]2OC(=O)[C@@H](C)[C@H]2[C@H](OC(=O)CC(=O)O[C@H]2[C@@H]3[C@H](C)C(=O)O[C@@H]3C[C@@H](C)[C@@H]3C=CC(=O)[C@]32C)[C@]2(C)C(=O)C=C[C@@H]12
- Average survival (days) [15]: 11.9
- Average survival (days) [16]: 10.8
- Average survival (days) [17]: 10.8
- T/C [9]: 124%
- T/C [18]: 112%
- T/C [10]: 112%

Compound: C=C1C(=O)O[C@@H]2C[C@@H](C)[C@@H]3C=CC(=O)[C@@]3(C)[C@@H](OC(=O)CCC(=O)O[C@H]3[C@@H]4C(=C)C(=O)O[C@@H]4C[C@@H](C)[C@@H]4C=CC(=O)[C@]43C)[C@H]12
- Average survival (days) [19]: 17.2
- Average survival (days) [20]: 10.6
- Average survival (days) [21]: 11.2
- Average survival (days) [22]: 13.7
- Average survival (days) [23]: 13.4
- Average survival (days) [24]: 16
- T/C [7]: 110%
- T/C [25]: 140%
- T/C [9]: 168%
- T/C [26]: 166%
- T/C [11]: 116%
- T/C [27]: 178%
